Experimental findings from patent US20240141020A1, “METHOD FOR MODULATING AFUCOSLYATION OF AN ANTIBODY PRODUCT” (LONZA BEND INC., priority 2021, published 2024) are described below.

This test deals with CHO GS-KO cells. Briefly: Modulation of afucosylation of a model IgG antibody produced by CHO GS-KO cells in supplemented culture medium (shake flasks, 5 days, LC-MS glycan profile). To be noted: for Average % Afucosylation: mAb harvested day 5, G0/(G0F+G0), n = 3 technical replicates, control 5.21%. In kind it is cell-based, Chinese hamster. The procedure: CHO GS-KO cells were cultured in chemically defined culture medium supplemented with different chemicals at different concentrations to test the impact of those chemicals on the N-linked glycan profile of the product produced by the cultures. The product produced by this cell line was a model IgG antibody. • 1. Prepare culture media with supplemented chemicals • 2. Culture cells in media from (1) • 3. Harvest mAb produced in cultures and measure glycan profile of purified, reduced, and de-salted mAb products • 4. Determine statistical impact of chemical supplements on glycan product quality The chemicals that were supplemented to the medium included: • None (Control) • Mannose • N-Acetylmannosamine (ManNAc)+Galactose Concentrated stock solutions of mannose, ManNAc, and galactose were prepared and added into culture media. Specific volumes of the stock solution was supplemented to the culture media to generate the conditions in Table 1: GS-KO cells were inoculated at a density of 2×10^5 cells/mL into vented shake flasks containing medium from Table 1. Cultures were grown for five days in a temperature, CO2, and humidity-controlled incubator. Daily samples were taken to monitor the culture health. mAb product was harvested from day 5 shake flask cultures and purified through Protein A capture. Purified mAb was prepared for glycan analysis by reducing mAb to separate heavy and light chains. Reduced mAb was injected onto an LC-MS where the reduced mAb was de-salted by passing through a reverse-phase de-salting column on the LC prior to injection into a time of flight mass spectrometer (TOF MS) (Agilent 6230B). Three injections per sample was performed for technical replicates. Protein Metrics Software was used to process the resulting LC-MS data and the relative abundance of each glycan species was reported. The glycan species measured in processing included: G0, G0F, G1F, G2F, G1F+NeuAc, […]+NeuAc, […]+2NeuAc. Percent afucosulated mAb was calculated by dividing the total amount of afucosylated species by the sum of afucosylate and fucosylated species (G0/[…]+G0).

As to `O=C[C@@H](O)[C@@H](O)[C@H](O)[C@H](O)CO` [Mannose, mannose], the “Average % Afucosylation” value amounted to 5.63% (culture medium + 1 g/L Mannose), 6.10% (culture medium + 3 g/L Mannose) and 7.27% (culture medium + 6 g/L Mannose). In addition, the “high mannose species of the antibody product (in words)” value (mannose in amounts greater than about 1 g/L) is “does not appear to result in an increase in high mannose species”. The “% afucosylated mAb compared to control (in words)” value (supplementation of culture medium with mannose, 1, 3, 6 g/L) is given as “significantly increased”.
As for `CC(=O)N[C@@H]1C(O)O[C@H](CO)[C@@H](O)[C@@H]1O` (stereo partly drawn) [ManNAc, N-Acetylmannosamine], the “afucosylation compared to control (in words)” value (higher concentration of ManNAc (10 uM), with 1 mM galactose) is “decreasing afucosylation slightly”.
